Data on nine compounds can be found in US7189858B2, “N-phenyl substituted carbamoyloxyalkyl-azolium derivatives” (Basilea Pharmaceutica AG, priority 1999, dated 2007).

Where two headings read alike, the source gives them in different places. Some results are limits rather than exact numbers.

Data set [1] is classed as in vitro ADME. The conditions noted are these: human.
Data set [2] has as its system Aspergillus fumigatus. The experiment in a line: Rat systemic aspergillosis model. Particulars: day 14 after infection. Type of data set: in vivo. The source says: (§1) Male Fisher rats, strain F344/DuCrj, were employed for experimental infection models such as systemic candidiasis, systemic aspergillosis and pulmonary aspergillosis model. Immunocompetent 4 weeks old rats were used for systemic candidiasis or systemic aspergillosis which occurred after infection with Candida albicans conidia of 5×10^6/rat or with Aspergillus fumigatus conidia of 6×10^5/rat via tail vein. Otherwise for pulmonary aspergillosis model, rats had been immunosuppressed with cortisone acetate treatments prior to infection with 2×10^5/rat intratrachially. Treatments were given twice on the first day and once daily on following 4 days both for systemic and pulmonary aspergillosis (Ib.i.+4q.d.), for systemic candidiasis rats were treated at 0, 4, 24, and 48 h after infection (Ib.i.d.+2q.d.). Effective dose 50% (ED50) values were determined on day 14 after infection.

Data set [3] deals with C. albicans CY3003. Put plainly: Rat systemic mycosis, C. albicans CY3003. It is filed as in vivo. Particulars: for ED50: Candida albicans, CY3003, 336 h, read-out: Rat systemic mycosis ED50 on day 14, C. albicans CY3003.
Text: as §1

For data set [4], the system named is C. albicans CY1002. Put plainly: Rat systemic mycosis, C. albicans CY1002. It is filed as in vivo. The conditions noted are these: for ED50: Candida albicans, CY1002, 336 h, read-out: Rat systemic mycosis ED50 on day 14, C. albicans CY1002.
Text: as §1

Data set [5] has as its system FCZ^R - C. albicans UTHS93-2067. The experiment in a line: Rat systemic mycosis, FCZ^R C. albicans UTHS93-2067. It is filed as in vivo. The conditions noted are these: for ED50: Candida albicans, 336 h, read-out: Rat systemic mycosis ED50 on day 14, FCZ^R - C. albicans UTHS93-2067.
Text: as §1

The subject of data set [6] is A. fumigatus CF1003. Put plainly: Rat systemic mycosis, A. fumigatus CF1003. Type of data set: in vivo. The conditions noted are these: for ED50: Aspergillus fumigatus, CF1003, 336 h, read-out: Rat systemic mycosis ED50 on day 14, A. fumigatus CF1003.
Text: as §1

The subject of data set [7] is C. parapsilosis KULM219C. Put plainly: Rat systemic mycosis, C. parapsilosis KULM219C. The conditions noted are these: for ED50: Lodderomyces parapsilosis, KULM219C, 336 h, read-out: Rat systemic mycosis ED50 on day 14, C. parapsilosis KULM219C. It is filed as in vivo.
Data set [8] concerns C. tropicalis CY5042. The experiment in a line: Rat systemic mycosis, C. tropicalis CY5042. It is filed as in vivo. Particulars: for ED50: Candida tropicalis, CY5042, 336 h, read-out: Rat systemic mycosis ED50 on day 14, C. tropicalis CY5042.
Data set [9] is described as follows: Solubility (Table 1). Particulars: solvent a = distilled water.
The conditions of data set [10]: rat.
Data set [11] deals with Candida albicans. Put plainly: Rat systemic candidiasis model (Fluconazole resistance). Type of data set: in vivo. Particulars: day 14 after infection.
Text: as §1

With `CNCC(=O)OCc1ccc(Cl)cc1N(C)C(=O)OC(C)[n+]1cnn(C[C@](O)(c2cc(F)ccc2F)[C@@H](C)c2nc(-c3ccc(C#N)cc3)cs2)c1.Cl.[I-]` (stereo partly drawn) [Example 7.10., 1-[[N-methyl-N-2-(methylamino)acetoxymethyl-5-chloro-phenyl]carbamoyloxy]ethyl-1-[(2R,3R)-2-(2,5-difluorophenyl)-2-hydroxy-3-[4-(4-cyanophenyl)thiazol-2-yl]butyl]-1H-[1,2,4]triazol-4-ium iodide hydrochloride], the “Conversion (half-life) to (2R,3R)-3-[4-(4-cyanophenyl)thiazol-2-yl)]-2-(2,5-difluorophenyl)-1-(1H-1,2,4-triazol-1-yl)-butan-2-ol (u) in plasma” value (from here on “Conversion (half-life)”) in [1] came out at 3 min in human plasma.
`CCC(C)n1ncn(-c2ccc(N3CCN(c4ccc(OCC5COC(Cn6cncn6)(c6ccc(Cl)cc6Cl)O5)cc4)CC3)cc2)c1=O` (stereo not shown) [Itraconazole, 4-[4-[4-[4-[[2-(2,4-Dichlorophenyl)-2-(1H-1,2,4-triazol-1-ylmethyl)-1,3-dioxolan-4-yl]methoxy]phenyl]-1-piperazinyl]phenyl]-2,4-dihydro-2-(1-methylpropyl)-3H-[1,2,4]triazol-3-one, reference compound]: the ED50 (commonly the midpoint of the dose-response relation) stood at 4.9 µmol/kg in data set [2] (Aspergillus fumigatus, po, 336 h, p.o.); 2.3 µmol/kg in [3] (PO.); 4.7 µmol/kg in [4] (PO.); 4.2 µmol/kg in data set [5] (PO.); 8.9 µmol/kg in [6] (PO.); 20 µmol/kg in [7] (PO.). The ED50 in data set [8] (PO.) was determined as 2 µmol/kg.
In the case of `CNCC(=O)OCc1c(F)cccc1N(C)C(=O)OC(C)[n+]1cnn(C[C@](O)(c2cc(F)ccc2F)[C@@H](C)c2nc(-c3ccc(C#N)cc3)cs2)c1.Cl.[Cl-]` (stereo partly drawn) [Example 7.13., 1-[[N-methyl-N-2-(methylamino)acetoxymethyl-3-fluoro-phenyl]carbamoyloxy]ethyl-1-[(2R,3R)-2-(2,5-difluorophenyl)-2-hydroxy-3-[4-(4-cyanophenyl)thiazol-2-yl]butyl]-1H-[1,2,4]triazol-4-ium chloride hydrochloride], the “Conversion (half-life)” value in [1] is recorded as 2 min in human plasma.
On to `CNCC(=O)OCc1cc(F)c(F)cc1N(C)C(=O)OC(C)[n+]1cnn(C[C@](O)(c2cc(F)ccc2F)[C@@H](C)c2nc(-c3ccc(C#N)cc3)cs2)c1.Cl.[Cl-]` (stereo partly drawn) [Example 7.3., 1-[[N-methyl-N-2-(methylamino)acetoxymethyl-4,5-difluorophenyl]carbamoyloxy]ethyl-1-[(2R,3R)-2-(2,5-difluorophenyl)-2-hydroxy-3-[4-(4-cyanophenyl)thiazol-2-yl]butyl]-1H-[1,2,4]triazol-4-ium chloride hydrochloride], for which the “Conversion (half-life)” value in data set [1] is on record as 6 min in human plasma.
Take `CC(C)NCc1ccccc1N(C)C(=O)OC(C)[n+]1cnn(C[C@](O)(c2cc(F)ccc2F)[C@@H](C)c2nc(-c3ccc(C#N)cc3)cs2)c1.Cl.[Cl-]` (stereo partly drawn) [Example 6, 1-[[N-methyl-N-2-(isopropylaminomethyl)phenyl]carbamoyloxy]ethyl-1-[(2R,3R)-2-(2,5-difluorophenyl)-2-hydroxy-3-[4-(4-cyanophenyl)thiazol-2-yl]butyl]-1H-[1,2,4]triazol-4-ium chloride hydrochloride]: in [9], the Solubility (in general, the dissolved amount per volume that the medium holds) was greater than 10000 µg/mL.
Take `CC(=O)OCc1ccccc1N(C)C(=O)OC[n+]1cnn(C[C@](O)(c2cc(F)ccc2F)[C@@H](C)c2nc(-c3ccc(C#N)cc3)cs2)c1.[Cl-]` [Example 5, [[N-methyl-N-2-(acetoxymethyl)phenyl]carbamoyloxy]methyl-1-[(2R,3R)-2-(2,5-difluorophenyl)-2-hydroxy-3-[4-(4-cyanophenyl)thiazol-2-yl]butyl]-1H-[1,2,4]triazol-4-ium chloride]: the “Conversion (half-life)” value in data set [10] is reported as less than 2 min in rat plasma.
With `OC(Cn1cncn1)(Cn1cncn1)c1ccc(F)cc1F` [Fluconazole, reference compound], the ED50 in [3] (PO.) came out at 1 µmol/kg; in data set [4] (PO.) it was 1.9 µmol/kg; in data set [5] (PO.), 8.1 µmol/kg; in [6] (PO.), 94 µmol/kg; in data set [7] (PO.), 17 µmol/kg; in data set [8] (PO.) it was 2 µmol/kg. In addition, it took a dose of 21.8 µmol/kg to reach the 50% effect level in data set [11] (Candida albicans, po, 336 h, p.o.) (ED50).
Consider `CNCC(=O)OCc1cccnc1N(C)C(=O)OC(C)[n+]1cnn(C[C@](O)(c2cc(F)ccc2F)[C@@H](C)c2nc(-c3ccc(C#N)cc3)cs2)c1.Cl.[Cl-]` (stereo partly drawn) [Example 7, 1-[[N-methyl-N-3-[(methylamino)acetoxymethyl]pyridin-2-yl]carbamoyloxy)ethyl-1-[(2R,3R)-2-(2,5-difluorophenyl)-2-hydroxy-3-[4-(4-cyanophenyl)thiazol-2-yl]butyl]-1H-[1,2,4]triazol-4-ium chloride hydrochloride], for which the “ED50, Systemic aspergillosis” value in data set [2] (i.v.) came to 13.5 µmol/kg; in data set [2] (p.o.) it was 8.8 µmol/kg. Moreover, the “Rat systemic mycosis ED50 on day 14, C. albicans CY3003” value in data set [3] (I.V.) came to 1.6 µmol/kg; in [3] (PO.), 2.5 µmol/kg. For the same compound, the “Rat systemic mycosis ED50 on day 14, C. albicans CY1002” value in [4] (I.V.) and in data set [4] (PO.) was 4 µmol/kg throughout. Besides, the “Rat systemic mycosis ED50 on day 14, FCZ^R - C. albicans UTHS93-2067” value in [5] (I.V.) amounted to 2.8 µmol/kg; in [5] (PO.), 7 µmol/kg. Moreover, the “Rat systemic mycosis ED50 on day 14, A. fumigatus CF1003” value in data set [6] (I.V.) turned out to be 11 µmol/kg; in data set [6] (PO.), 9 µmol/kg. In addition, the entries for the “Rat systemic mycosis ED50 on day 14, C. parapsilosis KULM219C” value in data set [7] (I.V.) and in data set [7] (PO.) were 7.6 µmol/kg and 6.5 µmol/kg, respectively. The “Rat systemic mycosis ED50 on day 14, C. tropicalis CY5042” value in data set [8] (I.V.) and in [8] (PO.) was 1 µmol/kg throughout. For the same compound, the “Conversion (half-life)” value in data set [1] is less than 2 min in human plasma. The “ED50, Systemic Fluconazole resistance candidiasis” value was 13.3 µmol/kg in data set [11] (i.v.) and 14.1 µmol/kg in data set [11] (p.o.).
On to `CNCC(=O)OCc1cc(F)ccc1N(C)C(=O)OC(C)[n+]1cnn(C[C@](O)(c2cc(F)ccc2F)[C@@H](C)c2nc(-c3ccc(C#N)cc3)cs2)c1.Cl.[I-]` (stereo partly drawn) [Example 7.4., 1-[[N-methyl-N-2-(methylamino)acetoxymethyl-4-fluoro-phenyl]carbamoyloxy]ethyl-1-[(2R,3R)-2-(2,5-difluorophenyl)-2-hydroxy-3-[4-(4-cyanophenyl)thiazol-2-yl]butyl]-1H-[1,2,4]triazol-4-ium iodide hydrochloride], for which, in [1], the “Conversion (half-life)” value is 2 min in human plasma.
